In PubChem BioAssay (NCI) one finds TGI and GI50 data, which are given here for 14 compounds.

Structures are written as SMILES.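 Results reflect a 48-hour exposure of cells in 96-well plates to compound at five concentrations. GI50 marks 50% less growth. TGI denotes the concentration required for complete inhibition of growth.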

Some test systems named below: COLO 205 colon; CAKI-1 renal; IGROV1 ovarian; A549 NSCLC; SK-MEL-5 melanoma; MALME-3M melanoma; HCT-15 colon; HOP-92 NSCLC; RPMI-8226 leukemia; SF-268 CNS.
What all share (experiment): NCI-60 cell line screen, 48 h

Turning to `CC(C)(C)N/N=C(\Cc1occc(=O)c1O)C(=O)Nc1ccc([N+](=O)[O-])cc1[N+](=O)[O-]`, the TGI with COLO 205 colon, in the assay on CAKI-1 renal, with IGROV1 ovarian, in the assay with A549 NSCLC, with SK-MEL-5 melanoma and with MALME-3M melanoma was greater than 100 µM each time. For the same compound, the TGI with HCT-15 colon, with HOP-92 NSCLC, in the assay on RPMI-8226 leukemia and in the assay with SF-268 CNS was greater than 100 µM in each case.
Turning to `O=c1oc2cc(N=Cc3ccccc3Cl)ccc2c2ccccc12`, the TGI in the assay with COLO 205 colon, in the assay with CAKI-1 renal, in the assay on IGROV1 ovarian, with A549 NSCLC, in the assay with SK-MEL-5 melanoma and in the assay with MALME-3M melanoma was greater than 100 µM each time. Moreover, the TGI in the assay on HCT-15 colon, with HOP-92 NSCLC, with RPMI-8226 leukemia and with SF-268 CNS was greater than 100 µM in each case.
As for `COc1ccc(C(C#N)NC23CC4CC(CC(C4)C2)C3)cc1OC` (configuration not stated), the TGI in the assay with COLO 205 colon, in the assay with CAKI-1 renal, in the assay on IGROV1 ovarian, in the assay with A549 NSCLC, with SK-MEL-5 melanoma and in the assay on MALME-3M melanoma was greater than 100 µM in each case. Also, the TGI in the assay on HCT-15 colon, with HOP-92 NSCLC, in the assay with RPMI-8226 leukemia and in the assay on SF-268 CNS was greater than 100 µM in each case.
On to `COc1ccc(-c2nn(-c3ccc(NC(=O)c4ccc(Cl)c(C(F)(F)F)c4)cc3)cc2-c2ccncc2)cc1Cl`, for which the GI50 is 1.27 µM in the assay on COLO 205 colon; 0.335 µM in the assay on CAKI-1 renal; 9.68 µM in the assay with IGROV1 ovarian; 1.81 µM in the assay with A549 NSCLC; 1.33 µM with SK-MEL-5 melanoma; 1.11 µM in the assay with MALME-3M melanoma. Further, the GI50 was 1.71 µM with HOP-92 NSCLC, 0.39 µM in the assay on RPMI-8226 leukemia and 0.896 µM with SF-268 CNS. Moreover, the TGI in the assay with COLO 205 colon is 3.48 µM; with CAKI-1 renal, 2.08 µM; in the assay with IGROV1 ovarian, greater than 100 µM; with A549 NSCLC, greater than 100 µM; with SK-MEL-5 melanoma, 3.84 µM; in the assay on HOP-92 NSCLC, 21.6 µM. For the same compound, the TGI with RPMI-8226 leukemia and in the assay on SF-268 CNS was greater than 100 µM throughout.
As to `Cc1cc(=O)n(-c2ccccc2)c(=O)o1`, the TGI with COLO 205 colon, with CAKI-1 renal, with IGROV1 ovarian, with A549 NSCLC, in the assay on SK-MEL-5 melanoma and in the assay on MALME-3M melanoma was greater than 100 µM in each case. Also, the TGI in the assay on HCT-15 colon, in the assay with HOP-92 NSCLC, in the assay with RPMI-8226 leukemia and in the assay with SF-268 CNS was greater than 100 µM throughout.
As for `O=C(/C=C/c1ccccc1)c1c[nH]c2ccccc2c1=O`, the GI50 was 2.39 µM in the assay with COLO 205 colon; 1.97 µM with CAKI-1 renal; 3.67 µM in the assay on IGROV1 ovarian; 2.35 µM in the assay on A549 NSCLC; 4.8 µM in the assay on SK-MEL-5 melanoma; 8.81 µM with MALME-3M melanoma. Besides, the GI50 is 2.08 µM in the assay on HCT-15 colon, 3.9 µM in the assay with HOP-92 NSCLC, 2.23 µM in the assay with RPMI-8226 leukemia and 2.81 µM with SF-268 CNS. Also, the TGI in the assay with COLO 205 colon was found to be 4.68 µM; in the assay with CAKI-1 renal, 6.22 µM; in the assay with IGROV1 ovarian, 16.4 µM; in the assay on A549 NSCLC, 10.3 µM; in the assay on SK-MEL-5 melanoma, 17 µM; in the assay with MALME-3M melanoma, 27.1 µM. Further, the TGI in the assay on HCT-15 colon came to 13.2 µM; in the assay with HOP-92 NSCLC, 13 µM; with RPMI-8226 leukemia, 7.62 µM; in the assay with SF-268 CNS it was 10.3 µM.
Consider `O=C(COc1ccc(/C=C2\Oc3ccccc3C2=O)cc1)Nc1nccs1`, for which the GI50 was greater than 100 µM in the assay on COLO 205 colon; 12.1 µM in the assay on CAKI-1 renal; 63.9 µM with A549 NSCLC; 64.4 µM in the assay with SK-MEL-5 melanoma; greater than 100 µM in the assay with MALME-3M melanoma; greater than 100 µM with HCT-15 colon. In addition, the figures for the GI50 in the assay on HOP-92 NSCLC, in the assay on RPMI-8226 leukemia and with SF-268 CNS were 1.53 µM, 4.12 µM and 36.8 µM, respectively. Further, the TGI in the assay on COLO 205 colon, in the assay with CAKI-1 renal, in the assay with A549 NSCLC, with SK-MEL-5 melanoma, in the assay with MALME-3M melanoma and in the assay with HCT-15 colon was greater than 100 µM in each case. Moreover, the TGI with HOP-92 NSCLC is 4.85 µM; with RPMI-8226 leukemia, greater than 100 µM; with SF-268 CNS, greater than 100 µM.
Take `Clc1ccccc1C(n1ncc2ccccc21)n1ncc2ccccc21`: the TGI with CAKI-1 renal was greater than 100 µM; in the assay on IGROV1 ovarian, greater than 10 µM; in the assay with SK-MEL-5 melanoma, 57.7 µM; in the assay on MALME-3M melanoma, greater than 100 µM; in the assay with HCT-15 colon, greater than 100 µM; in the assay on HOP-92 NSCLC, greater than 100 µM. The figures for the TGI with RPMI-8226 leukemia and with SF-268 CNS were 63.3 µM and greater than 100 µM, respectively.
Turning to `[C-]#[O+].[Cl][Sn]([Cl])[Cl].[Cl][Sn]([Cl])[Cl].[Pt].c1ccc([PH+](c2ccccc2)c2ccccc2)cc1.c1ccc([PH+](c2ccccc2)c2ccccc2)cc1`, the GI50 with COLO 205 colon was greater than 100 µM; with IGROV1 ovarian, 20.9 µM; with A549 NSCLC, 44.1 µM; in the assay on SK-MEL-5 melanoma, 31.5 µM; in the assay with MALME-3M melanoma, 60 µM; in the assay on HCT-15 colon, 49.9 µM. The GI50 in the assay on HOP-92 NSCLC is 17.1 µM; in the assay with RPMI-8226 leukemia it was 27.7 µM; in the assay with SF-268 CNS it was 23 µM. Moreover, the TGI in the assay on COLO 205 colon, with IGROV1 ovarian, in the assay with A549 NSCLC, in the assay with SK-MEL-5 melanoma, in the assay with MALME-3M melanoma and with HCT-15 colon was greater than 100 µM throughout. Also, the TGI with HOP-92 NSCLC came to 46.8 µM; with RPMI-8226 leukemia, 80.3 µM; in the assay with SF-268 CNS it was 51.1 µM.
Turning to `CN(CCC#N)c1ccc(/C=C(\C#N)c2cccc(C(F)(F)F)c2)cc1`, the GI50 is 3.81 µM with COLO 205 colon; 4.24 µM in the assay with CAKI-1 renal; 4.95 µM with IGROV1 ovarian; 3.23 µM in the assay on SK-MEL-5 melanoma; 3.59 µM in the assay with MALME-3M melanoma; 3.14 µM in the assay on HCT-15 colon. For the same compound, the results for the GI50 in the assay with HOP-92 NSCLC, in the assay on RPMI-8226 leukemia and in the assay on SF-268 CNS were 3.01 µM, 3.63 µM and 6.66 µM, respectively. Besides, the TGI with COLO 205 colon is greater than 100 µM; with CAKI-1 renal it was greater than 100 µM; in the assay on IGROV1 ovarian it was greater than 100 µM; with SK-MEL-5 melanoma, 30.5 µM; with MALME-3M melanoma it was greater than 100 µM; with HCT-15 colon it was greater than 100 µM. The TGI is 66.7 µM with HOP-92 NSCLC, greater than 100 µM in the assay with RPMI-8226 leukemia and greater than 100 µM with SF-268 CNS.
On to `COc1ccc2c(c1)[C@]1(C[C@H]1c1ccc3c(/C=C/c4ccc(CN5C[C@@H](C)O[C@@H](C)C5)cc4)n[nH]c3c1)C(=O)N2`, for which the GI50 in the assay with COLO 205 colon was less than 0.0209 µM; in the assay with IGROV1 ovarian, 9.69 µM; in the assay on A549 NSCLC, 2.72 µM; in the assay on SK-MEL-5 melanoma it was 1.77 µM; in the assay with MALME-3M melanoma it was 2.22 µM; in the assay with HCT-15 colon, 3.34 µM. Besides, the figures for the GI50 in the assay with HOP-92 NSCLC, in the assay on RPMI-8226 leukemia and with SF-268 CNS were 5.34 µM, 1.59 µM and 4.63 µM, respectively. Also, the TGI in the assay with COLO 205 colon was 15.1 µM; in the assay on IGROV1 ovarian, greater than 100 µM; in the assay with A549 NSCLC, greater than 55.4 µM; with SK-MEL-5 melanoma it was 3.87 µM; in the assay on MALME-3M melanoma, 8.63 µM; in the assay with HCT-15 colon it was greater than 100 µM. For the same compound, the TGI in the assay on HOP-92 NSCLC is 39.1 µM; in the assay with RPMI-8226 leukemia it was greater than 100 µM; in the assay on SF-268 CNS, greater than 90.6 µM.
Consider `CCN(CC)C(=O)CC1=C(C)/C(=C/c2[nH]c(-c3ccc[nH]3)cc2OC)N=C1C`, for which the GI50 is 0.296 µM in the assay with COLO 205 colon; 0.383 µM in the assay on CAKI-1 renal; 0.43 µM with IGROV1 ovarian; 0.639 µM in the assay with A549 NSCLC; 0.982 µM in the assay on MALME-3M melanoma; 0.278 µM with HCT-15 colon. The GI50 is 0.235 µM with HOP-92 NSCLC, 0.304 µM in the assay on RPMI-8226 leukemia and 0.633 µM in the assay with SF-268 CNS. The TGI with COLO 205 colon is 10.1 µM; in the assay with CAKI-1 renal, 11.4 µM; in the assay with IGROV1 ovarian, 15.6 µM; with A549 NSCLC it was greater than 100 µM; in the assay with MALME-3M melanoma it was 9.05 µM; with HCT-15 colon, 0.891 µM. For the same compound, the TGI was 0.977 µM in the assay on HOP-92 NSCLC, 2.28 µM in the assay with RPMI-8226 leukemia and 21.3 µM in the assay on SF-268 CNS.
As to `CN1C(OCc2ccccc2)c2c(ccc3c2OCO3)C2C=Cc3cc4c(cc3C21)OCO4` (configuration not stated), the TGI was determined as 2.2 µM in the assay with COLO 205 colon; 2.2 µM with CAKI-1 renal; 2.09 µM with IGROV1 ovarian; 2.58 µM with SK-MEL-5 melanoma; 2.52 µM with MALME-3M melanoma; 1.83 µM in the assay with HCT-15 colon. Further, the TGI in the assay with HOP-92 NSCLC worked out at 2.3 µM; with RPMI-8226 leukemia it was 0.584 µM; with SF-268 CNS it was 1.58 µM.
For the compound `O=C(/C=C1\C(=O)N(Cc2ccc([N+](=O)[O-])cc2)c2ccccc21)c1ccc(OCCN2CCCCC2)cc1`, the GI50 in the assay on COLO 205 colon is 1.64 µM; in the assay with CAKI-1 renal it was 1.07 µM; in the assay on A549 NSCLC, 1.68 µM; in the assay on SK-MEL-5 melanoma, 1.67 µM; with MALME-3M melanoma, 1.22 µM; in the assay on HCT-15 colon it was 1.19 µM. Further, the GI50 is 1.07 µM in the assay on HOP-92 NSCLC, 1.35 µM in the assay on RPMI-8226 leukemia and 1.58 µM with SF-268 CNS. The TGI with COLO 205 colon amounted to 3.27 µM; with CAKI-1 renal, 2.26 µM; in the assay with A549 NSCLC, 3.28 µM; in the assay on SK-MEL-5 melanoma it was 3.04 µM; with MALME-3M melanoma it was 2.74 µM; in the assay with HCT-15 colon, 2.48 µM. Also, the TGI stood at 2.37 µM in the assay with HOP-92 NSCLC, 4.13 µM in the assay on RPMI-8226 leukemia and 3.32 µM in the assay on SF-268 CNS.
